In paper PMC7780097, “Asn‐linked N–acetylglucosamine of the amylin receptor 2 extracellular domain enhances peptide ligand affinity” (FEBS Open Bio, 2020):

What was measured:
[1] = target: RAMP2 ECD:CTR ECD complex (Endo H‐treated CTR ECD WT) (Homo sapiens, UniProt O60895+P30988); test: FP peptide binding assay, RAMP2 ECD 100 μM coincubation with Endo H-treated CTR ECD WT (AMY2 ECD); settings: Discussion summary of Fig. 4B
Protocol: The expression and purification procedure of Endo H‐treated CTR ECD WT and N130D was previously reported. […] After TEV protease reaction, N‐glycans of the protein were trimmed with 1 : 10 ratio Endo H (w/w, Endo H : protein) overnight at 4 °C, while dialyzing to 25 mM MOPS (pH 6.5) and 150 mM NaCl. Next day, the pH was increased to pH 7.5 and the protein was purified with IMAC and following SEC. The final peak fractions were dialyzed to storage buffer and stored at −80 °C until use.
The expression and purification of glycan‐free RAMP2 ECD were previously reported except for using RAMP2.55‐140 instead of RAMP2.36‐140 [15]. Briefly, MBP‐Thrombin cleavage site‐hRAMP2.55‐140‐H6 was expressed in the E. coli strain Origami B DE3. The cells were lysed by sonication and spun down by centrifugation. The supernatant was purified with IMAC and following amylose affinity chromatography. Human α‐thrombin was used to cleave out MBP, and the reaction mixture was loaded to IMAC to remove untagged MBP and thrombin. The RAMP2 ECD was further purified with SEC, and the peak fractions were dialyzed to storage buffer and stored at −80 °C until use. RAMP2 ECD without an MBP‐tag was also purified as follows. hRAMP2.55‐140‐H6 was expressed in the E. coli strain Origami B DE3. The bacterial cells were lysed by sonication using Bioruptor® standard (Diagenode Inc., Denville, NJ, USA). […]

CTR ECD = settings: cited from earlier work
Source text: The calcitonin receptor (CTR) is a class B GPCR for peptide hormone calcitonin that regulates calcium homeostasis. CTR has an ECD with four N‐glycosylation sites: N28, N73, N125, and N130. […] Unexpectedly, the crystal structures of Endo H‐treated/Asn‐linked GlcNAc‐containing CTR ECD were almost identical to the structure of glycan‐free CTR ECD with a subtle structural difference. Direct interaction between the Asn‐linked GlcNAc and peptide hormone sCT was not found in the crystal structures ruling out the hypothesis of direct interaction between them. We also examined whether CTR ECD residues near the Asn‐linked GlcNAc of N130 medi ...

full‐length CTR = settings: cited from earlier work
Source text: The calcitonin receptor (CTR) is a class B GPCR for peptide hormone calcitonin that regulates calcium homeostasis. CTR has an ECD with four N‐glycosylation sites: N28, N73, N125, and N130. […] My colleagues and I reported that N‐glycosylation of CTR enhanced salmon calcitonin (sCT) affinity for CTR ECD by sevenfold and that the asp ...

CTR = system: CTR; set-up: method as in PMID 15692146; settings: cited from earlier work
AMY = system: AMY; set-up: method as in PMID 15692146; settings: cited from earlier work
[2] = target: T1, glycosylated CTR ECD[N130D] (Homo sapiens, UniProt P30988, N130D); test: FP peptide binding assay, glycosylated CTR ECD[N130D] with or without PNGase F treatment; settings: heat‐inactivated PNGase F vs No PNGase F; Fig. 2A
T1 sequence (P30988 38-141 N130D): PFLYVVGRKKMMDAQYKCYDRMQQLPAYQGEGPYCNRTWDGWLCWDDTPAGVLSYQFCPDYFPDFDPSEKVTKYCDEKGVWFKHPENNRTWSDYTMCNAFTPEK
Protocol: (§1) pHLsec‐based vectors were used to obtain glycosylated CTR ECD from HEK293S GnTI^− cells as a secreted protein. Maltose‐binding protein (MBP) was fused to the CTR ECD to increase initial protein expression and purification.
(§2) MBP‐TEV cleavage site‐CTR ECD WT was expressed from HEK293S GnTI^− cells for 3 days after plasmid transfection with polyethyleneimine (PEI). All protein purification steps were performed at 4 °C, otherwise noted. The expressed protein was purified with immobilized Ni metal affinity chromatography (IMAC). The peak fractions were pooled and incubated with 1 : 5 ratio TEV protease (w/w, TEV protease: protein) for 6 h at 20 °C. The reaction mixture was spin‐concentrated (MWCO 10 kDa) and loaded to size‐exclusion chromatography (SEC). The fractions with expected CTR ECD WT molecular weight were collected, spin‐concentrated, and used for PNGase F reaction and following peptide binding assay. […]
(§3) The procedure of fluorescence polarization (FP) peptide binding assay was previously described [4]. FITC‐sCT(22–32), FITC‐AC413(6–25), and FITC‐AM(37–52)[S45W/Q50W] were used as fluorescence‐labeled peptide probes. […] A PolarStar Omega plate reader (BMG Labtech, Cary, NC, USA) or a SpectraiD5 (Molecular Devices, San Jose, CA, USA) was used to measure FP. Background‐subtracted fluorescence intensity was used to calculate anisotropy.

[3] = system: glycosylated CTR ECD[N130D]; test: as above; settings: PNGase F treatment vs No PNGase F treatment; Fig. 2A
Protocol: as §1, §2, §3

[4] = by the Asn‐linked GlcNAc of CTR N130

Chain of RAMP2 ECD:CTR ECD complex (Endo H‐treated CTR ECD WT) (P30988 38-141): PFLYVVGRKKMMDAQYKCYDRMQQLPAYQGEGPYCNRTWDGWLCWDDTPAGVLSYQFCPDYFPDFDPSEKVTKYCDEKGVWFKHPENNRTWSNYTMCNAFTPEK
Chain of RAMP2 ECD:CTR ECD complex (Endo H‐treated CTR ECD WT) (O60895 55-140): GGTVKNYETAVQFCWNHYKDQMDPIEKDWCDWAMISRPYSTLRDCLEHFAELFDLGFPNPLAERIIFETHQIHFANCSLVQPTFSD

salmon calcitonin [sCT]
sCT affinity for AMY2 ECD, effect of the Asn‐linked GlcNAc of CTR N130 [1]: increased | fold enhancement of affinity by N‐glycosylation (CTR ECD; N‐glycosylation of CTR): sevenfold | decrease of dissociation rate (CTR ECD; [4]): twofold | fold affinity enhancement (CTR ECD; [4]): sixfold | increase of association rate (CTR ECD; [4]): threefold | affinity, effect of N‐glycosylation of CTR ECD N130 (full‐length CTR): enhanced | agonist activity (CTR): high affinity agonist | agonist activity (AMY): high affinity agonist | effect of heat‐inactivated PNGase F on affinity [2]: did not change | fold decrease in affinity [3]: 1.7 fold
